Source: PMC4809600, “The Influence of Chronic Wound Extracts on Inflammatory Cytokine and Histatin Stability” (PLoS ONE, 2016)

Key:
[1] = Stability in chronic wound extracts (CWE), capillary zone electrophoresis; assay type: in vitro ADME, human; conditions: 37°C, CZE; for Percentage intact, CWE 2h / Percentage intact, CWE 4h / Percentage intact, CWE 8h / Percentage intact, CWE 16h / Percentage intact, CWE 24h / Percentage intact, CWE 48h / Percentage intact, CWE 72h / Percentage intact, CWE 96h: 1 mg/ml in PBS mixed 1:1 with CWE (1 mg/ml protein, pool of 5 donors) in PBS, UV 200 nm, ratio to imidazole
How it was run: (§1)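 Peptides or cytokines (1 mg/ml stock) mixed 1:1 with PBS or pooled chronic-wound extract (1 mg/ml protein, three pools of five donors), ±protease inhibitor cocktail, at 37 °C for up to 96 h. Analyzed by capillary zone electrophoresis (pH 2.5 phosphate, 200 nm), with peak ratio to imidazole standard relative to 0 h as % intact.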

[2] = Stability in PBS, capillary zone electrophoresis; assay type: physicochemical; conditions: 1 mg/ml in PBS mixed 1:1 with PBS, 37°C, 24 h, CZE, UV 200 nm, ratio to imidazole internal standard, 0 h = 100%
Description: To determine the stability of the different peptides in CWE, histatins and cytokines were dissolved in PBS at 1 mg/ml. Histatins and cytokines were incubated in a 1:1 ratio with (i) PBS, (ii) CWE in PBS, or (iii) CWE in PBS containing PIC, in a total volume of 25 μl. Imidazole (Sigma-Aldrich) was added as an internal standard, with a final concentration of 100 μg/ml. The mixtures were incubated at 37°C, and samples were taken at 0, 24, 48, 72 and 96 h. For histatins containing mixtures, additional samples were taken after 2, 4, 8 and 16 h of incubation.
The samples were analyzed with a BioFocus 2000 capillary zone electrophoresis system (Bio-Rad Laboratories, Hercules, CA, USA) equipped with an uncoated fused-silica capillary of internal diameter 50 μm and a length of 24 cm. Samples were loaded by pressure injection (5 psi/sec). Separation was performed at 10 kV (cathode at the detector side) at 20°C using 0.1 M phosphate buffer (pH 2.5) as electrolyte and monitored continuously at 200 nm. Peaks were quantified with the BioFocus Integrator software. In order to quantify the percentage of intact peptides remaining after incubation with CWE, the ratios of histatins, rhIL-6 or rhCXCL8 to internal standard was set at 100% at 0h, and the ratios at the other incubation time points were related to this.

[3] = Stability in CWE with protease inhibitor cocktail (PIC), capillary zone electrophoresis; assay type: in vitro ADME, human; conditions: 37°C, CZE, 0 h = 100%; for Percentage intact, CWE + PIC 2h / Percentage intact, CWE + PIC 4h / Percentage intact, CWE + PIC 8h / Percentage intact, CWE + PIC 16h / Percentage intact, CWE + PIC 24h / Percentage intact, CWE + PIC 48h / Percentage intact, CWE + PIC 72h / Percentage intact, CWE + PIC 96h: 1 mg/ml in PBS mixed 1:1 with CWE (1 mg/ml protein, pool of 5 donors) in PBS containing PIC (final 1:140 v/v), ratio to imidazole
How it was run: as §1

With “cyclo(DNLPETGGDSHEKRHHGYRRKFHEKHHSHREFPFYGDYGSNYLY) [cHst1]” the “Percentage intact, CWE 2h” value ([1]; 0 h = 100%, experiment 1 of 3) was 94.125%, the “Percentage intact, CWE 2h” value ([1]; 0 h = 100%, experiment 2 of 3) was 97.8952% and the “Percentage intact, CWE 2h” value ([1]; 0 h = 100%, experiment 3 of 3) was 100%. For the same substance, the “Percentage intact, CWE 4h” value ([1]; 0 h = 100%, experiment 1 of 3) was 84.7219%, the “Percentage intact, CWE 4h” value ([1]; 0 h = 100%, experiment 2 of 3) was 88.931% and the “Percentage intact, CWE 4h” value ([1]; 0 h = 100%, experiment 3 of 3) was 83.8816%. For the same substance, the “Percentage intact, CWE 8h” value ([1]; 8 h, 0 h = 100%, experiment 1 of 3) was 81.3497%, the “Percentage intact, CWE 8h” value ([1]; 8 h, 0 h = 100%, experiment 2 of 3) was 83.9314% and the “Percentage intact, CWE 8h” value ([1]; 8 h, 0 h = 100%, experiment 3 of 3) was 78.1579%. For the same substance, the “Percentage intact, CWE 16h” value ([1]; 0 h = 100%, experiment 1 of 3) was 71.6467%, the “Percentage intact, CWE 16h” value ([1]; 0 h = 100%, experiment 2 of 3) was 74.8159% and the “Percentage intact, CWE 16h” value ([1]; 0 h = 100%, experiment 3 of 3) was 54.5266%. For the same substance, the “Percentage intact, CWE 24h” value ([1]; 24 h, 0 h = 100%, experiment 1 of 3) was 54.5627%, the “Percentage intact, CWE 24h” value ([1]; 24 h, 0 h = 100%, experiment 2 of 3) was 58.7294% and the “Percentage intact, CWE 24h” value ([1]; 24 h, 0 h = 100%, experiment 3 of 3) was 52.1934%. The “Percentage intact, CWE 48h” value ([1]; 0 h = 100%, experiment 1 of 3) was 29.9428%, the “Percentage intact, CWE 48h” value ([1]; 0 h = 100%, experiment 2 of 3) was 34.7264% and the “Percentage intact, CWE 48h” value ([1]; 0 h = 100%, experiment 3 of 3) was 26.5123%. The “Percentage intact, CWE 72h” value ([1]; 0 h = 100%, experiment 1 of 3) was 20.4492%, the “Percentage intact, CWE 72h” value ([1]; 0 h = 100%, experiment 2 of 3) was 21.8694% and the “Percentage intact, CWE 72h” value ([1]; 0 h = 100%, experiment 3 of 3) was 20.7179%. The “Percentage intact, CWE 96h” value ([1]; 0 h = 100%, experiment 1 of 3) was 15.3884%, the “Percentage intact, CWE 96h” value ([1]; 0 h = 100%, experiment 2 of 3) was 19.0259% and the “Percentage intact, CWE 96h” value ([1]; 0 h = 100%, experiment 3 of 3) was 11.1869%. For the same substance, the remaining at 8 h, 0.5 mg/ml ([1]; human, chronic wound extracts (CWE), 1 mg/ml in PBS mixed 1:1 with CWE (1 mg/ml protein, pools of 5 donors), 8 h, 0 h = 100%, mean of 3 independent experiments, read-out: Original amount of peptide remaining intact after 8 h in CWE) was 81%, the remaining at 24 h, 0.5 mg/ml ([1]; human, chronic wound extracts (CWE), 1 mg/ml in PBS mixed 1:1 with CWE (1 mg/ml protein, pools of 5 donors), 24 h, 0 h = 100%, mean of 3 independent experiments, read-out: Original amount of peptide remaining intact after 24 h in CWE) was 55% and the metabolised at 8 h, 0.5 mg/ml ([1]; human, chronic wound extracts (CWE), incubation with chronic wound extracts, 8 h, read-out: Breakdown (degradation) in CWE in 8 h) was ~20%. The “Percentage intact, PBS 24h” value ([2]; experiment 1 of 3) was 91.5758%, the “Percentage intact, PBS 24h” value ([2]; experiment 2 of 3) was 95.461% and the “Percentage intact, PBS 24h” value ([2]; experiment 3 of 3) was 100.575%. For the same substance, the “Percentage intact, CWE + PIC 2h” value ([3]; experiment 1 of 3) was 89.1635%, the “Percentage intact, CWE + PIC 2h” value ([3]; experiment 2 of 3) was 89.9717% and the “Percentage intact, CWE + PIC 2h” value ([3]; experiment 3 of 3) was 92.8798%. For the same substance, the “Percentage intact, CWE + PIC 4h” value ([3]; experiment 1 of 3) was 81.2396%, the “Percentage intact, CWE + PIC 4h” value ([3]; experiment 2 of 3) was 77.3258% and the “Percentage intact, CWE + PIC 4h” value ([3]; experiment 3 of 3) was 92.4896%. For the same substance, the “Percentage intact, CWE + PIC 8h” value ([3]; experiment 1 of 3) was 74.181%, the “Percentage intact, CWE + PIC 8h” value ([3]; experiment 2 of 3) was 79.1445% and the “Percentage intact, CWE + PIC 8h” value ([3]; experiment 3 of 3) was 86.6559%. The “Percentage intact, CWE + PIC 16h” value ([3]; experiment 1 of 3) was 65.982%, the “Percentage intact, CWE + PIC 16h” value ([3]; experiment 2 of 3) was 74.0107% and the “Percentage intact, CWE + PIC 16h” value ([3]; experiment 3 of 3) was 77.3109%. The “Percentage intact, CWE + PIC 24h” value ([3]; 24 h, experiment 1 of 3) was 76.8799%, the “Percentage intact, CWE + PIC 24h” value ([3]; 24 h, experiment 2 of 3) was 76.3765% and the “Percentage intact, CWE + PIC 24h” value ([3]; 24 h, experiment 3 of 3) was 70.9573%. The “Percentage intact, CWE + PIC 48h” value ([3]; experiment 1 of 3) was 68.226%, the “Percentage intact, CWE + PIC 48h” value ([3]; experiment 2 of 3) was 72.203% and the “Percentage intact, CWE + PIC 48h” value ([3]; experiment 3 of 3) was 63.9246%. For the same substance, the “Percentage intact, CWE + PIC 72h” value ([3]; experiment 1 of 3) was 63.1229%, the “Percentage intact, CWE + PIC 72h” value ([3]; experiment 2 of 3) was 65.5213% and the “Percentage intact, CWE + PIC 72h” value ([3]; experiment 3 of 3) was 53.9233%. For the same substance, the “Percentage intact, CWE + PIC 96h” value ([3]; experiment 1 of 3) was 57.543%, the “Percentage intact, CWE + PIC 96h” value ([3]; experiment 2 of 3) was 57.4907% and the “Percentage intact, CWE + PIC 96h” value ([3]; experiment 3 of 3) was 51.0863%. It also gave a remaining at 24 h, 0.5 mg/ml ([3]; human, with protease inhibitor cocktail (PIC), CWE with protease inhibitor cocktail (final 1:140 v/v), 24 h, mean of 3 independent experiments, read-out: Remaining fraction of intact peptide after 24 h in CWE + PIC) of 74%.
